Data taken from US8686024B2, “Indoline derivatives” (priority 2009, dated 2014).
Entries after “also recorded” stand apart in the source; their conditions may differ. Read-outs that look alike come from different tables or passages of the source.

How the values were obtained:
[1] = biological target: T1, butyrylcholine esterase (BuChE) (Mus musculus, UniProt Q03311); assay: In vitro assay for choline esterase inhibition (Ellman method), butyrylthiocholine substrate, mouse serum; type: biochemical; settings: for Ratio AChE/BuChE: selectivity for BuChE inhibition: IC50 (AchE)/IC50 (BuChE)
T1 construct: brain homogenate and serum of mouse were used as choline esterase enzyme sources; from tissue; host or cells: mouse serum
T1 sequence (Q03311 30-603): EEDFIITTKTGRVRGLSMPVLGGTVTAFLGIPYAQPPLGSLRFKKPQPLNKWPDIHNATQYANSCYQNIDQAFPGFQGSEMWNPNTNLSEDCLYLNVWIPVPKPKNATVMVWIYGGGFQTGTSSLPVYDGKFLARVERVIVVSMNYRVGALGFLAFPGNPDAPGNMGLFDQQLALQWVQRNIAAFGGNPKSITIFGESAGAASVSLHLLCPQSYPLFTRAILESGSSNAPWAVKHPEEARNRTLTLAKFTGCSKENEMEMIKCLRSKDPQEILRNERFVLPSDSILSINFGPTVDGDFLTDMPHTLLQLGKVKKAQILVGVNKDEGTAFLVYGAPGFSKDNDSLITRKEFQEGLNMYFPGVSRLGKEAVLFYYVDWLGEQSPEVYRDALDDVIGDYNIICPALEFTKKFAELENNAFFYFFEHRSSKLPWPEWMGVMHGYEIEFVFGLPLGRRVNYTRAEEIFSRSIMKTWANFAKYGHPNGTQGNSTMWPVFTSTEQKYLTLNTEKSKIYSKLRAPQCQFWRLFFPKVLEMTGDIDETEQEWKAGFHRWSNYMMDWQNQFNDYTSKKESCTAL
Protocol: (§1) For measurement of esterase activity, brain homogenate and serum of mouse were used as choline esterase enzyme sources, and the method of Ellman et. al (Biochemical pharmacology 7: 88-95 1961) were referred. Compound of each example were diluted in dimethylsulfoxide.
(§2) In detail, acetylthiocholine or butyrylthiocholine as substrates, test compounds, and DNTB [[…]] were added to the mouse brain homogenate or serum, respectively.
(§3) After incubation, thiocholine was produced by enzyme reaction in the mixture, and then, the yellow product was formed by the reaction of thiocholine and DTNB. The activity of acetylcholine esterase (AChE) or butyrylcholine esterase (BuChE) was evaluated by determination of absorbance at 415 nm. […] And the selectivity for BuChE inhibition of each compound was calculated by the ratio: IC50 (AchE)/IC50 (BuChE).

[2] = biological target: T2, acetylcholine esterase (AChE) (Mus musculus, UniProt P21836); assay: In vitro assay for choline esterase inhibition (Ellman method), acetylthiocholine substrate, mouse brain homogenate; type: biochemical
T2 construct: brain homogenate and serum of mouse were used as choline esterase enzyme sources; from tissue; host or cells: mouse brain homogenate
T2 sequence (P21836 32-614): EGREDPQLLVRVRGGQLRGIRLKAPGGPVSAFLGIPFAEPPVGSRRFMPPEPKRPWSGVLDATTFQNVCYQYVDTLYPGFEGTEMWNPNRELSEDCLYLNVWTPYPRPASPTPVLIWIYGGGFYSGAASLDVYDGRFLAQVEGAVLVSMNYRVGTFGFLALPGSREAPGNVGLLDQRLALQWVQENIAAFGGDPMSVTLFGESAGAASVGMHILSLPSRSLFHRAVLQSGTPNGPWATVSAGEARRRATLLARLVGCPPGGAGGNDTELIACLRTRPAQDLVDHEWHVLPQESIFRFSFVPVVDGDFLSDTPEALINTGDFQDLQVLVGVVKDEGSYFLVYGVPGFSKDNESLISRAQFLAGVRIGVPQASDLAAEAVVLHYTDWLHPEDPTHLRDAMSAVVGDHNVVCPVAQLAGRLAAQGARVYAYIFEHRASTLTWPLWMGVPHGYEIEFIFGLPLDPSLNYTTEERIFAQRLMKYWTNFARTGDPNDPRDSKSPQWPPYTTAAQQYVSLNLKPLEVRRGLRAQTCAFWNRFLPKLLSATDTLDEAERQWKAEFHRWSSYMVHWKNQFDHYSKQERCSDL
Protocol: as §1, §2, §3

[3] = mouse serum, butyrylthiocholine, absorbance at 415 nm, read-out: BuChE inhibitory activity IC50
[4] = mouse brain homogenate, acetylthiocholine, absorbance at 415 nm, read-out: AChE inhibitory activity IC50

| Compound | IC50 [1] [nM] | Ratio AChE/BuChE [1] | IC50 [2] [nM] | IC50 [1, 3] [nM] | selectivity to butyrylcholinesterase (BuChE versus AChE inhibitory activity), in words ([1]; summary of Tables 1-3) | IC50 [2, 4] [nM] | butyrylcholinesterase inhibitory activity, in words ([1]; summary of Tables 1-3) | IC50 ([2]; read-out: AChE inhibitory activity IC50) [nM] |
| --- | --- | --- | --- | --- | --- | --- | --- | --- |
| CC(C)c1ccc(NC(=O)Oc2ccc3c(c2)CCN3Cc2cccc(O)c2)cc1 [Example 62, 1-(3-hydroxybenzyl)indolin-5-yl 4-isopropylphenylcarbamate] | 450 | >220 | > 100000 | – | – | – | – | – |
| Cc1ccc(CNC(=O)Oc2ccc3c(c2)CCN3Cc2ccccc2)cc1 [Example 99, 1-benzylindolin-5-yl-4-methylbenzylcarbamate] | – | 670 | – | 21 | much higher | 14000 | – | – |
| O=C(NCc1ccccc1)Oc1ccc2c(c1)CCN2 [Example 127, indolin-5-yl benzylcarbamate] | – | 1.2 | – | 610 | – | 750 | – | – |
| O=C(NC1Cc2ccccc2C1)Oc1ccc2c(c1)CCN2Cc1ccccc1 [Example 44, 1-benzylindolin-5-yl 2-indanylcarbamate] | 32 | >3100 | > 100000 | – | much higher | – | – | – |
| Cc1ccc(CCNC(=O)Oc2ccc3c(c2)CCN3Cc2ccccc2)c(C)c1 [Example 116, 1-benzylindolin-5-yl 2,4-dimethylphenethylcarbamate] | 45 | >2200 | > 100000 | – | much higher | – | – | – |
| CN(C)c1ccc(NC(=O)Oc2ccc3c(c2)CCN3Cc2ccccc2)cc1 [Example 133, 1-benzylindolin-5-yl 4-dimethylaminophenylcarbamate] | 39 | >2600 | > 100000 | – | much higher | – | – | – |
| O=C(NCC1CCCCC1)Oc1ccc2c(c1)CCN2Cc1ccccc1 [Example 34, 1-benzylindolin-5-yl cyclohexylmethylcarbamate] | 3 | >33000 | > 100000 | – | much higher | – | – | – |
| O=C(NC1CCCCCCC1)Oc1ccc2c(c1)CCN2Cc1ccccc1 [Example 45, 1-benzylindolin-5-yl cyclooctylcarbamate] | 21 | >4800 | > 100000 | – | much higher | – | – | – |
| O=C(NCc1ccco1)Oc1ccc2c(c1)CCN2Cc1ccccc1 [Example 18, 1-benzylindolin-5-yl furfurylcarbamate] | – | 47 | – | 38 | – | 1800 | – | – |
| CC(C)c1ccc(CCNC(=O)Oc2ccc3c(c2)CCN3Cc2ccccc2)cc1 [Example 33, 1-benzylindolin-5-yl 4-isopropylphenethylcarbamate] | 350 | >290 | > 100000 | – | – | – | – | – |
| O=C(NC1CCCCC1)Oc1ccc2c(c1)CCN2Cc1ccccc1 [Example 20, 1-benzylindolin-5-yl cyclohexylcarbamate] | 67 | >1500 | > 100000 | – | much higher | – | – | – |
| O=C(NC1CCCCC1)Oc1ccc2c(c1)CCN2Cc1ccccn1 [Example 149, 1-(2-pyridylmethyl)indolin-5-yl cyclohexylcarbamate] | – | 38 | – | 58 | – | 2200 | – | – |
| O=C(NCCc1ccncc1)Oc1ccc2c(c1)CCN2Cc1ccccc1 [Example 119, 1-benzylindolin-5-yl 2-(4-pyridyl)ethylcarbamate] | – | 240 | – | 59 | much higher | 14000 | – | – |
| CC(C)c1ccc(NC(=O)Oc2ccc3c(c2)CCN3Cc2c[nH]c3ccccc23)cc1 [Example 80, 1-(indol-3-ylmethyl)indolin-5-yl 4-isopropylphenylcarbamate] | 140 | >710 | > 100000 | – | – | – | – | – |
| COc1ccc(CCNC(=O)Oc2ccc3c(c2)CCN3Cc2ccccc2)cc1 [Example 32, 1-benzylindolin-5-yl 4-methoxyphenethylcarbamate] | 160 | >630 | > 100000 | – | – | – | – | – |
| Cc1ccc(CCNC(=O)Oc2ccc3c(c2)CCN3Cc2ccccc2)cc1 [Example 91, 1-benzylindolin-5-yl-4-methylphenethylcarbamate] | – | >1700 | – | 59 | much higher | > 100000 | – | – |
| O=C(NCCc1cccnc1)Oc1ccc2c(c1)CCN2Cc1ccccc1 [Example 120, 1-benzylindolin-5-yl 2-(3-pyridyl)ethylcarbamate] | – | 350 | – | 24 | much higher | 8500 | – | – |
| CCCCCCNC(=O)Oc1ccc2c(c1)CCN2Cc1ccccc1 [Example 17, 1-benzylindolin-5-yl n-hexylcarbamate] | – | 500 | – | 16 | much higher | 8000 | – | – |
| CC(C)c1ccc(NC(=O)Oc2ccc3c(c2)CCN3CCc2ccccc2)cc1 [Example 3, 1-phenethylindolin-5-yl 4-isopropylphenylcarbamate] | 1200 | >83 | > 100000 | – | – | – | – | – |
| COc1ccc(CNC(=O)Oc2ccc3c(c2)CCN3Cc2ccccc2)cc1 [Example 31, 1-benzylindolin-5-yl 4-methoxybenzylcarbamate] | – | 240 | – | 17 | much higher | 4100 | – | – |
| COc1ccc(NC(=O)Oc2ccc3c(c2)CCN3Cc2ccccc2)cc1OC [Example 140, 1-benzylindolin-5-yl 3,4-dimethoxyphenylcarbamate] | 110 | >910 | > 100000 | – | – | – | – | – |
| CC(C)(C)CCNC(=O)Oc1ccc2c(c1)CCN2Cc1ccccc1 [Example 42, 1-benzylindolin-5-yl 3,3-dimethylbutylcarbamate] | 23 | >4300 | > 100000 | – | much higher | – | – | – |
| O=C(NCc1ccncc1)Oc1ccc2c(c1)CCN2Cc1ccccc1 [Example 103, 1-benzylindolin-5-yl 4-pyridylmethylcarbamate] | – | 85 | – | 110 | – | 9300 | – | – |
| C[C@H](NC(=O)Oc1ccc2c(c1)CCN2Cc1ccccc1)c1ccccc1 [Example 19, 1-benzylindolin-5-yl (S)-1-phenylethylcarbamate] | 190 | >530 | > 100000 | – | – | – | – | – |
| CN(CC1CCOCC1)C(=O)Oc1ccc2c(c1)C(C)(C)CN2Cc1ccccc1 [Example 217, O-(1-benzyl-3,3-dimethylindolin-5-yl)-N-methyl-N-(4-tetrahydropyranylmethyl)carbamate] | 0.36 | 260000 | 93000 | – | much higher; also recorded: highest selectivity to butyrylcholinesterase | – | highest butyrylcholinesterase inhibitory activity | – |
| CCCCCCNC(=O)Oc1ccc2c(c1)CCN2Cc1ccccn1 [Example 147, 1-(2-pyridylmethyl)indolin-5-yl n-hexylcarbamate] | – | 23 | – | 11 | – | 250 | – | – |
| CC(C)c1ccc(NC(=O)Oc2ccc3c(c2)C(C)CN3Cc2ccccc2)cc1 (stereo not shown) [Example 146, 1-benzyl-3-methylindolin-5-yl-4-isopropylphenylcarbamate] | – | >560 | – | 180 | – | > 100000 | – | – |
| Cc1ccc(NC(=O)Oc2ccc3c(c2)CCN3Cc2ccccc2)cc1 [Example 55, 1-benzylindolin-5-yl-4-methylphenylcarbamate] | – | >340 | – | 290 | – | – | – | > 100000 |
| COc1cccc(CNC(=O)Oc2ccc3c(c2)CCN3Cc2ccccc2)c1 [Example 100, 1-benzylindolin-5-yl 3-methoxybenzylcarbamate] | – | 220 | – | 7.3 | much higher | 1600 | – | – |
